From ChEMBL document CHEMBL1157662, “Antimalarial and antileishmanial activities of histone deacetylase inhibitors with triazole-linked cap group” (Bioorg Med Chem, 2010)
Values after ≈ are worked out from the molar mass of the structure shown. Active and inactive are the calls of the source. The rule behind the calls is not given here.

Experiments:
[1] = Selectivity index, ratio of IC50 for african green monkey (Cercopithecus aethiops) Vero cells to IC50 for chloroquine-resistant Plasmodium falciparum W2
[2] = test system: Plasmodium falciparum; test: microbe, parasite or virus in culture; assay type: functional, organism-based, W2, Vero; details: Plasmodium falciparum, W2, Vero, 72 h; read-out: IC50
Description: Antimalarial activity against chloroquine-resistant Plasmodium falciparum W2 infected in African green monkey (Cercopithecus aethiops) Vero cells assessed as parasite LDH activity after 72 hrs by Malstat reagent method

[3] = test system: Vero; test: Cytotoxicity against african green monkey Vero cells after 1 to 2 days by neutral red assay; assay type: ADME, cell-based, Chlorocebus sabaeus
[4] = target: Histone deacetylase; test: Inhibition of HDAC in human HeLa cell nuclear extracts after 15 mins by fluorescence assay; assay type: cell-based
[5] = test system: Plasmodium falciparum; test: microbe, parasite or virus in culture; details: D6, Vero, 72 h
Description: Antimalarial activity against chloroquine-sensitive Plasmodium falciparum D6 infected in African green monkey (Cercopithecus aethiops) Vero cells assessed as parasite LDH activity after 72 hrs by Malstat reagent method

[6] = Selectivity index, ratio of IC50 for african green monkey (Cercopithecus aethiops) Vero cells to IC50 for chloroquine-sensitive Plasmodium falciparum D6
[7] = test system: Leishmania donovani; test: Antileishmanial activity against Leishmania donovani promastigotes after 72 hrs by alamar blue assay; assay type: functional, organism-based
[8] = test system: Leishmania donovani; test: Ratio of suberoylanilide hydroxamic acid IC50 to compound IC50 for Leishmania donovani promastigotes; assay type: functional
[9] = test system: Leishmania donovani; test: Ratio of suberoylanilide hydroxamic acid IC50 to compound IC50 for Leishmania donovani promastigotes
[10] = test system: Leishmania donovani
[11] = Leishmania donovani, 72 h, read-out: IC50
[12] = Chlorocebus sabaeus, Vero, read-out: IC50

SMILES	selectivity ratio [1]	IC50 [2]	IC50 ([3]; vero)	IC50 [4]	IC50 [5]	selectivity ratio [6]	IC90 ([7]; Leishmania donovani, 72 h)	IC50 [7, 11]	Ratio [8]	IC50 ratio [9]	IC50 [3, 12]	IC90 [10]	IC50 [7]
O=C(CCCCCCCn1cc(-c2cccc(-c3ccccc3)c2)nn1)NO	> 7.3	0.65 µg/mL (≈ 1.72 µM)	Non-toxic	108.9 nM	0.84 µg/mL (≈ 2.22 µM)	> 5.6	40 µg/mL (≈ 106 µM)	20.2 µg/mL (≈ 53.5 µM)	–	–	–	–	–
O=C(CCCCCn1cc(-c2cccc(-c3ccccc3)c2)nn1)NO	> 183	0.026 µg/mL (≈ 0.0742 µM)	Non-toxic	–	0.0375 µg/mL (≈ 0.107 µM)	> 127	32.5 µg/mL (≈ 92.7 µM)	11.2 µg/mL (≈ 32.1 µM)	2	2	–	–	–
COc1ccccc1-c1cn(CCCCCC(=O)NO)nn1	23.6	0.0975 µg/mL (≈ 0.32 µM)	–	–	0.15 µg/mL (≈ 0.493 µM)	15.3	> 40 µg/mL	18.8 µg/mL (≈ 61.6 µM)	–	–	2.3 µg/mL (≈ 7.56 µM)	–	–
CN(C)c1ccc(-c2cn(CCCCCCCCC(=O)NO)nn2)cc1	> 2.9	1.65 µg/mL (≈ 4.59 µM)	Non-toxic	596.6 nM	1.8 µg/mL (≈ 5.01 µM)	> 2.6	> 40 µg/mL	20.8 µg/mL (≈ 57.7 µM)	–	–	–	–	–
O=C(CCCCCCn1cc(-c2ccc(-c3ccncc3)cc2)nn1)NO	> 3.8	1.25 µg/mL (≈ 3.42 µM)	Non-toxic	–	1.15 µg/mL (≈ 3.15 µM)	> 4.1	–	–	–	–	–	inactive	Not Active
CN(C)c1ccc(-c2cn(CCCCCCCC(=O)NO)nn2)cc1	3.6	0.185 µg/mL (≈ 0.536 µM)	–	15.9 nM	0.175 µg/mL (≈ 0.507 µM)	3.8	> 40 µg/mL	24 µg/mL (≈ 69.5 µM)	–	–	0.97 µg/mL (≈ 2.81 µM)	–	–
COc1cccc(OC)c1-c1cn(CCCCCC(=O)NO)nn1	> 1.8	2.6 µg/mL (≈ 7.78 µM)	Non-toxic	–	2 µg/mL (≈ 5.98 µM)	> 2.4	> 40 µg/mL	40 µg/mL (≈ 120 µM)	–	–	–	–	–
Cc1ccc(-c2cn(CCCCCC(=O)NO)nn2)cc1	27.5	0.14 µg/mL (≈ 0.486 µM)	–	–	0.13 µg/mL (≈ 0.451 µM)	29.6	> 40 µg/mL	21.5 µg/mL (≈ 74.6 µM)	–	–	3.85 µg/mL (≈ 13.4 µM)	–	–
O=C(CCCCCn1cc(-c2cccnc2)nn1)NO	> 23.2	0.205 µg/mL (≈ 0.745 µM)	Non-toxic	–	0.175 µg/mL (≈ 0.636 µM)	> 27.2	> 40 µg/mL	11.4 µg/mL (≈ 41.6 µM)	–	–	–	–	–
O=C(CCCCCn1cc(-c2cccs2)nn1)NO	> 130	0.0365 µg/mL (≈ 0.13 µM)	Non-toxic	–	0.046 µg/mL (≈ 0.164 µM)	> 103	> 40 µg/mL	11.5 µg/mL (≈ 41 µM)	2	2	–	–	–
O=C(CCCCCCCn1cc(-c2ccc(-c3ccncc3)cc2)nn1)NO	30.2	0.128 µg/mL (≈ 0.336 µM)	–	212.9 nM	0.0885 µg/mL (≈ 0.233 µM)	43.5	–	–	–	–	3.85 µg/mL (≈ 10.1 µM)	inactive	Not Active
O=C(CCCCCCn1cc(-c2ccccc2)nn1)NO	17.6	0.0245 µg/mL (≈ 0.085 µM)	–	–	0.038 µg/mL (≈ 0.132 µM)	11.3	40 µg/mL (≈ 139 µM)	4.55 µg/mL (≈ 15.8 µM)	2	2	0.43 µg/mL (≈ 1.49 µM)	–	–
O=C(CCCCCn1cc(-c2ccc(-c3ccncc3)cc2)nn1)NO	> 100	0.0475 µg/mL (≈ 0.135 µM)	Non-toxic	–	0.0455 µg/mL (≈ 0.129 µM)	> 105	> 40 µg/mL	28 µg/mL (≈ 79.7 µM)	–	–	–	–	–
C[C@@H]1[C@H](O)[C@@H](C)/C=C/C=C/C=C/C=C/C=C/C=C/C=C/[C@H](O[C@@H]2O[C@H](C)[C@@H](O)[C@H](N)[C@@H]2O)C[C@@H]2O[C@](O)(C[C@@H](O)C[C@@H](O)[C@H](O)CC[C@@H](O)C[C@@H](O)CC(=O)O[C@H]1C)C[C@H](O)[C@H]2C(=O)O [AMPHOTERICIN B]	–	–	–	–	–	–	0.31 µg/mL (≈ 0.335 µM)	0.14 µg/mL (≈ 0.152 µM)	–	–	–	–	–
O=C(CCCCCCCCn1cc(-c2ccccc2)nn1)NO	1.2	2.75 µg/mL (≈ 8.69 µM)	–	55.4 nM	2.65 µg/mL (≈ 8.38 µM)	1.9	> 40 µg/mL	18.5 µg/mL (≈ 58.5 µM)	–	–	3.35 µg/mL (≈ 10.6 µM)	–	–
COc1ccc(-c2cn(CCCCCC(=O)NO)nn2)cc1	26.1	0.09 µg/mL (≈ 0.296 µM)	–	–	0.13 µg/mL (≈ 0.427 µM)	18.1	> 40 µg/mL	18.5 µg/mL (≈ 60.8 µM)	–	–	2.35 µg/mL (≈ 7.72 µM)	–	–
O=C(CCCCCn1cc(-c2ccccc2)nn1)NO	30.4	0.13 µg/mL (≈ 0.474 µM)	–	–	0.088 µg/mL (≈ 0.321 µM)	44.9	> 40 µg/mL	17.5 µg/mL (≈ 63.8 µM)	–	–	3.95 µg/mL (≈ 14.4 µM)	–	–
O=C(CCCCCCC(=O)Nc1ccccc1)NO [VORINOSTAT]	–	–	–	–	–	–	57.9 µg/mL (≈ 219 µM)	–	–	–	–	–	–
O=C(CCCCCCCn1cc(-c2ccccc2)nn1)NO	> 6.8	0.695 µg/mL (≈ 2.3 µM)	Non-toxic	363.6 nM	0.645 µg/mL (≈ 2.13 µM)	> 7.4	> 40 µg/mL	17.8 µg/mL (≈ 58.7 µM)	–	–	–	–	–
